Consider 36 compounds from patent US7998965B2, “Glutamate aggrecanase inhibitors” (Wyeth LLC, priority 2005, dated 2011).

The assay has as its target T1, purified recombinant human Aggrecanase-1 (rAgg1) (Homo sapiens, UniProt O75173).
T1 sequence (O75173 213-837): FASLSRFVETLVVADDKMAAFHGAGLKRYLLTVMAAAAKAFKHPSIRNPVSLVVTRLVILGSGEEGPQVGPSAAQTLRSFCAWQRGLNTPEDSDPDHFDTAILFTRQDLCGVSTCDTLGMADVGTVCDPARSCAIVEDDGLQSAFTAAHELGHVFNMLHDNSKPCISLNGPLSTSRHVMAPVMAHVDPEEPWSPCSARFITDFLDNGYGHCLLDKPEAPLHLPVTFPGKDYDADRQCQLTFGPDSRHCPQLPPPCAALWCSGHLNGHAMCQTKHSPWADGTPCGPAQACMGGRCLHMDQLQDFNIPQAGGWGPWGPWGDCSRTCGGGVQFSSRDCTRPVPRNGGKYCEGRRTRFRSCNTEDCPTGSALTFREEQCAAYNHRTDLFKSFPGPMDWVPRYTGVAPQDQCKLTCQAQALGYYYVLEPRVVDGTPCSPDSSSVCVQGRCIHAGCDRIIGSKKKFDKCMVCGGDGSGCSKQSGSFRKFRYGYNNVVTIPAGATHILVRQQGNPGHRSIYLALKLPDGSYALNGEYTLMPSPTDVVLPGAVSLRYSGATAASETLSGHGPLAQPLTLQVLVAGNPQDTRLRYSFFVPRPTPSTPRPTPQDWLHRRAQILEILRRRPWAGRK
The assay is described as follows: In vitro fluorescence screen for Aggrecanase-1 inhibitors. Format: biochemical. Particulars: for IC50: read-out: Agg1 IC50; for Ki: enzyme not given, column follows Agg1 IC50, read-out: Ki.

Like-named read-outs stand apart in the source and are kept apart here.

The IC50 is the concentration at which inhibition is half-maximal. Consider `O=C(O)CCC(NC(=O)c1ccc(-c2ccccc2)cc1)C(=O)O` (stereo in doubt) [Example 2, N-(1,1′-biphenyl-4-ylcarbonyl)-D-glutamic acid], for which the IC50 (Table 1) was determined as 111 nM. The same measure, in the same setting: as for `O=C(O)CC[C@H](NC(=O)c1ccc(Nc2ncccn2)cc1)C(=O)O` [Example 1, N-[4-(pyrimidin-2-ylamino)benzoyl]-L-glutamic acid], the figure is 900 nM; as for `NC(=O)[C@H](CCC(=O)O)NC(=O)c1ccc(Nc2ncccn2)cc1` [Example 3, N^2-[4-(pyrimidin-2-ylamino)benzoyl]-L-alpha-glutamine], 12700 nM.

On to `NC(=O)[C@@H](CCC(=O)O)NC(=O)c1ccc(-c2ccccc2)cc1` [Example 4, N^2-(1,1′-biphenyl-4-ylcarbonyl)-D-alpha-glutamine], for which the IC50 (Table 1) turned out to be 1100 nM. For `O=C(O)CC[C@H](NC(=O)c1ccc(-c2ccccc2)cc1)C(=O)NCCCCO` [Example 5, N^2-(1,1′-biphenyl-4-ylcarbonyl)-N^1-(4-hydroxybutyl)-L-alpha-glutamine], the IC50 (Table 1) is 1800 nM. Regarding `CC(C)(CO)NC(=O)[C@H](CCC(=O)O)NC(=O)c1ccc(-c2ccccc2)cc1` [Example 6B, N^2-(biphenyl-4-ylcarbonyl)-N^1-(2-hydroxy-1,1-dimethylethyl)-L-α-glutamine], for the setting “Table 1”, the IC50 was 300 nM.

Consider `CC(C)(C)CC(C)(C)NC(=O)[C@H](CCC(=O)O)NC(=O)c1ccc(-c2ccccc2)cc1` [Example 6C, N^2-(biphenyl-4-ylcarbonyl)-N^1-(1,1,3,3-tetramethylbutyl)-L-α-glutamine], for which the IC50 (Table 1) stood at 150 nM. Regarding `CC(C)(Cc1ccccc1)NC(=O)[C@H](CCC(=O)O)NC(=O)c1ccc2c(c1)Cc1ccccc1-2` [Example 6D, N^1-(1,1-dimethyl-2-phenylethyl)-N^2-(9H-fluoren-2-ylcarbonyl)-L-α-glutamine], the IC50 (Table 1) worked out at 45 nM. On the same count and under the same terms, as for `CC(C)(Cc1ccc(Cl)cc1)NC(=O)[C@H](CCC(=O)O)NC(=O)c1ccc2c(c1)Cc1ccccc1-2` [Example 6E, N^1-[2-(4-chlorophenyl)-1,1-dimethylethyl]-N^2-(9H-fluoren-2-ylcarbonyl)-L-α-glutamine], the figure is 56 nM; as for `O=C(O)CC[C@H](NC(=O)c1ccc(-c2ccccc2)cc1)C(=O)NCc1cc(F)cc(F)c1` [Example 8AA, N^2-(1,1′-biphenyl-4-ylcarbonyl)-N^1-(3,5-difluorobenzyl)-L-α-glutamine], 370 nM.

With `Nc1ccc(CNC(=O)[C@H](CCC(=O)O)NC(=O)c2ccc(-c3ccccc3)cc2)cc1` [Example 8AAAA, N^1-(4-aminobenzyl)-N^2-(1,1′-biphenyl-4-ylcarbonyl)-L-α-glutamine], the half-inhibitory concentration (IC50) (Table 1) stood at 100 nM. On to `Cc1cccc(CNC(=O)[C@H](CCC(=O)O)NC(=O)c2ccc3c(c2)Cc2ccccc2-3)c1` [Example 8CCCCC, N^2-(9H-fluoren-2-ylcarbonyl)-N^1-(3-methylbenzyl)-L-α-glutamine], for which the IC50 (Table 2) is 107 nM. For `O=C(O)CC[C@H](NC(=O)c1ccc(-c2ccccc2)cc1)C(=O)NCCN1CCOCC1` [Example 8DDD, N^2-(biphenyl-4-ylcarbonyl)-N^1-(2-morpholin-4-ylethyl)-L-α-glutamine], the IC50 (Table 1) was determined as 300 nM.

As to `Nc1cccc(CNC(=O)[C@H](CCC(=O)O)NC(=O)c2ccc(-c3ccccc3)cc2)c1` [Example 8DDDD, N^1-(3-aminobenzyl)-N^2-(1,1′-biphenyl-4-ylcarbonyl)-L-α-glutamine], the IC50 (Table 1) is 110 nM. Still for that read-out and setting: the figure for `Cc1ccccc1CNC(=O)[C@H](CCC(=O)O)NC(=O)c1ccc(-c2ccccc2)cc1` [Example 8EE, N^2-(1,1′-biphenyl-4-ylcarbonyl)-N^1-(2-methylbenzyl)-L-α-glutamine] is 200 nM; for `CCN(CC)C(=O)[C@H](CCC(=O)O)NC(=O)c1ccc(-c2ccccc2)cc1` [Example 8EEE, N^2-(biphenyl-4-ylcarbonyl)-N^1,N^1-diethyl-L-α-glutamine] it is 7900 nM. Turning to `O=C(O)CC[C@H](NC(=O)c1ccc(-c2ccccc2)cc1)C(=O)NCc1ccccc1` [Example 8EEEE, N^1-benzyl-N^2-(1,1-biphenyl-4-ylcarbonyl)-L-α-glutamine], the IC50 (Table 1) was 400 nM. Take `CCCCN(C)C(=O)[C@H](CCC(=O)O)NC(=O)c1ccc(-c2ccccc2)cc1` [Example 8EEEEEE, N^2-(biphenyl-4-ylcarbonyl)-N-butyl-N-methyl-L-α-glutamine]: the IC50 (Table 2) was determined as 5000 nM. In the case of `CC(C)(Cc1ccc(F)cc1)NC(=O)[C@@H](CCC(=O)O)NC(=O)c1ccc(-c2ccccc2)cc1` [Example 8FFFF, N^2-(biphenyl-4-ylcarbonyl)-N^1-[2-(4-fluorophenyl)-1,1-dimethylethyl]-D-α-glutamine], the IC50 (Table 1) is 3600 nM. For the compound `COc1ccc(CCN(C)C(=O)[C@H](CCC(=O)O)NC(=O)c2ccc(-c3ccccc3)cc2)cc1OC` [Example 8GGGGGG, N^2-(biphenyl-4-ylcarbonyl)-N-[2-(3,4-dimethoxyphenyl)ethyl]-N-methyl-L-α-glutamine], the IC50 (Table 2) amounted to 4200 nM. `Cc1cccc(CNC(=O)[C@H](CCC(=O)O)NC(=O)c2ccc(-c3ccccc3)cc2)c1C` [Example 8HH, N^2-(1,1′-biphenyl-4-ylcarbonyl)-N^1-(2,3-dimethylbenzyl)-L-α-glutamine]: the IC50 (Table 1) was determined as 160 nM.

As to `O=C(O)CCC(NC(=O)c1ccc(Nc2ncccn2)cc1)C(=O)NCc1ccccc1` (stereo not drawn) [Example 8HHHH], under “Table 1”, the IC50 amounted to 200 nM. On the same count and under the same terms, the figure for `O=C(O)CC[C@H](NC(=O)c1ccc(-c2ccccc2)cc1)C(=O)NCC1C2CC3CC(C2)CC1C3` (stereo partly drawn) [Example 8I, N^1-(2-adamantylmethyl)-N^2-(1,1′-biphenyl-4-ylcarbonyl)-L-α-glutamine] is 500 nM. Still for that read-out and setting: as for `Cc1ccc(CNC(=O)[C@H](CCC(=O)O)NC(=O)c2ccc(-c3ccccc3)cc2)cc1` [Example 8III, N^2-(1,1′-biphenyl-4-ylcarbonyl)-N^1-(4-methylbenzyl)-L-α-glutamine], the figure is 120 nM. In general, Ki refers to a measure of affinity in units of concentration, obtained from inhibition or displacement. Take `O=C(O)CC[C@H](NC(=O)c1ccc2c(c1)Cc1ccccc1-2)C(=O)NCCCc1ccccc1` [Example 8IIII, N^2-(9H-fluoren-2-ylcarbonyl)-N^1-(3-phenylpropyl)-L-α-glutamine]: where the note is “Table 1”, the Ki is 9 nM and the IC50 was less than 30 nM. Take `COCCNC(=O)[C@H](CCC(=O)O)NC(=O)c1ccc(-c2ccccc2)cc1` [Example 8J, N^2-(1,1′-biphenyl-4-ylcarbonyl)-N^1-(2-methoxyethyl)-L-α-glutamine]: the IC50 (Table 1) was found to be 360 nM.

With `O=C(O)CC[C@H](NC(=O)c1cccc2c1Cc1ccccc1-2)C(=O)NCCCc1ccccc1` [Example 8JJJJ, N^2-(9H-fluoren-1-ylcarbonyl)-N^1-(3-phenylpropyl)-L-α-glutamine], the IC50 (Table 1) was greater than 50000 nM. Same read-out and setting: as for `COc1ccc(CNC(=O)[C@H](CCC(=O)O)NC(=O)c2ccc(-c3ccccc3)cc2)cc1` [Example 8K, N^2-(1,1′-biphenyl-4-ylcarbonyl)-N^1-(4-methoxybenzyl)-L-α-glutamine], the figure is 300 nM; as for `CC(C)(C)c1ccc(CNC(=O)[C@H](CCC(=O)O)NC(=O)c2ccc(-c3ccccc3)cc2)cc1` [Example 8KK, N^2-(1,1′-biphenyl-4-ylcarbonyl)-N^1-(4-tert-butylbenzyl)-L-α-glutamine], 180 nM.

`COc1cc(CNC(=O)[C@H](CCC(=O)O)NC(=O)c2ccc3c(c2)Cc2ccccc2-3)cc(OC)c1OC` [Example 8KKKK, N^2-(9H-fluoren-2-ylcarbonyl)-N^1-(3,4,5-trimethoxybenzyl)-L-α-glutamine]: where the note is “Table 1”, the Ki came to 4 nM and the 50% inhibitory concentration (IC50) is less than 30 nM. Take `CC(C)(C)CCNC(=O)[C@H](CCC(=O)O)NC(=O)c1ccc(-c2ccccc2)cc1` [Example 8LLL, N^2-(biphenyl-4-ylcarbonyl)-N^1-(3,3-dimethylbutyl)-L-α-glutamine]: the IC50 (Table 1) was found to be 230 nM. With `COc1cc(CNC(=O)[C@H](CCC(=O)O)NC(=O)c2cccc3c2Cc2ccccc2-3)cc(OC)c1OC` [Example 8LLLL, N^2-(9H-fluoren-1-ylcarbonyl)-N^1-(3,4,5-trimethoxybenzyl)-L-α-glutamine], the “Agg1 IC50 (nM)” value (Table 1) is listed as “no inh”. On to `COc1cc(CNC(=O)[C@H](CCC(=O)O)NC(=O)c2ccc3c(c2)C(=O)c2ccccc2-3)cc(OC)c1OC` [Example 8MMMM, N^2-[(9-oxo-9H-fluoren-2-yl)carbonyl]-N^1-(3,4,5-trimethoxybenzyl)-L-α-glutamine], for which, for the setting “Table 1”, the Ki worked out at 57 nM and the IC50 was 47 nM.

As for `O=C(O)CC[C@H](NC(=O)c1ccc(-c2ccccc2)cc1)C(=O)NCc1cccc2ccccc12` [Example 8N, N^2-(1,1′-biphenyl-4-ylcarbonyl)-N^1-(1-naphthylmethyl)-L-α-glutamine], where the note is “Table 1”, the IC50 was 290 nM.

On to `COc1cc(CNC(=O)[C@H](CCC(=O)O)NC(=O)c2ccc(Oc3ccccc3)cc2)cc(OC)c1OC` [Example 8NNNN, N^2-(4-phenoxybenzoyl)-N^1-(3,4,5-trimethoxybenzyl)-L-α-glutamine], for which the IC50 (Table 1) came out at 3400 nM. With `O=C(O)CC[C@H](NC(=O)c1ccc(Br)cc1)C(=O)NCc1ccccc1` [Example 8NNNNNN, N^1-benzyl-N^2-(4-bromobenzoyl)-L-α-glutamine], the IC50 (Table 1) is roughly 40000 nM.
